Data: patent US8026278B2, “Inhibitors of pyruvate kinase as therapeutic agents for cancer” (priority 2005, dated 2011)
Where a name gives a salt, the structure may show the parent alone.

Key:
[1] = target: T1, Pyruvate kinase isolated from rabbit muscle (Oryctolagus cuniculus, UniProt P11974); test: Inhibition of pyruvate kinase (indirect assay quantifying ADP production); format: biochemical
T1 construct: Pyruvate kinase isolated from rabbit muscle; purchased Sigma-Aldrich; host or cells: rabbit muscle (tissue-derived enzyme)
Experimental: The compounds E-3-chlorophosphoenolpyruvate ditriethyl-ammonium salt (ECPDAT), Z-3-chlorophosphoenolpyruvate tritriethyl-ammonium salt (CPTP), phosphoenol-3-bromo-pyruvic acid mono-cyclohexyl ammonium salt (PBPA), 2-bromooxoethylphosphonic acid mono-cyclohexyl-ammonium salt (BOEPA) and 3-bromopyruvic acid (BrPyA) were tested for their efficiency at inhibiting pyruvate kinase. Pyruvate kinase isolated from rabbit muscle was purchased from Sigma-Aldrich. Pyruvate kinase was assayed indirectly by quantifying ADP production formed in the reaction ATP+pyruvate to ADP+phosphoenolpyruvate. Inhibitors were added to the reaction mixture immediately before the reaction was started by the addition of ATP.

[2] = system: MCF7 (breast) cancer cell line; test: MTT assay, inhibition of cell proliferation, MCF7; format: cell-based; settings: MCF7, 72 hours
Experimental: (§1) The compounds of the invention were tested for their inhibition potential of cell proliferation. MCF7 (breast) and SF268 (glioma) cancer cell lines were incubated with different concentrations of the compounds and their viability was assessed using an MTT (3-(4,5-dimethylthiazol-2-yl)-2,5-diphenyltetrazolium bromide) assay. The MTT assay is well known in the art (see for example Slater et al., Biochim. Biophys. Acta 77 (1963) 383). The cells were incubated with a given inhibitor for 72 hours and assayed.

[3] = system: SF268 (glioma) cancer cell line; test: MTT assay, inhibition of cell proliferation, SF268; format: cell-based; settings: SF268, 72 hours
Experimental: as §1

T1 sequence (P11974 whole entry): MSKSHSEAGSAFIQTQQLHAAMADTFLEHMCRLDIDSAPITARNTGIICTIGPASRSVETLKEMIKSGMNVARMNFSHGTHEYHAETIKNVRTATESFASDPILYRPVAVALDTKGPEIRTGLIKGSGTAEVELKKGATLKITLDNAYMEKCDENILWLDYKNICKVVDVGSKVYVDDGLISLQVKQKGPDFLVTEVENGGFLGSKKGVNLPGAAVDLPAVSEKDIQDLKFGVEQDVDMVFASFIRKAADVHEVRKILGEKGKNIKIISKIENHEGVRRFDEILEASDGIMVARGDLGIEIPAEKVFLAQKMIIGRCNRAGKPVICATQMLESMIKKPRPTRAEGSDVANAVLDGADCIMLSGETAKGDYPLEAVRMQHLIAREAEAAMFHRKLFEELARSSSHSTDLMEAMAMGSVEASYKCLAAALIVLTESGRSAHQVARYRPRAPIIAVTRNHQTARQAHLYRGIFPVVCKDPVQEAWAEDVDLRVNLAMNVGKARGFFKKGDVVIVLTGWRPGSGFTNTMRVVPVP

## O=C(O)C(=CBr)OP(=O)(O)O [PBPA, phosphoenol-3-bromo-pyruvic acid mono-cyclohexyl ammonium salt]
[1]
  Inhibition of pyruvate kinase compared with BrPyA: inhibited pyruvate kinase at lower concentrations than BrPyA
[1]; Concentration 0.1 μM, read-out: % Inhibition
  inhibition at 0.1 µM: 0%
[1]; Concentration 1 μM, read-out: % Inhibition
  inhibition at 1 µM: 13.8%
[1]; Concentration 10 μM, read-out: % Inhibition
  inhibition at 10 µM: 28.6%
[2]
  Inhibition of cell proliferation: inhibited cell proliferation
[2]; 10 uM
  % (A-Blank relative to control): 94.23%
  A-Blank (Average-Blank) O.D. at 570 nm: 0.7632 O.D.
  Average O.D. reading at 570 nm: 0.846 O.D.
[2]; 25 uM
  % (A-Blank relative to control): 97.16%
  A-Blank (Average-Blank) O.D. at 570 nm: 0.787 O.D.
  Average O.D. reading at 570 nm: 0.8698 O.D.
[2]; 50 uM
  % (A-Blank relative to control): 97.901%
  A-Blank (Average-Blank) O.D. at 570 nm: 0.793 O.D.
  Average O.D. reading at 570 nm: 0.8758 O.D.
[2]; 75 uM
  % (A-Blank relative to control): 98.827%
  A-Blank (Average-Blank) O.D. at 570 nm: 0.8005 O.D.
  Average O.D. reading at 570 nm: 0.8833 O.D.
[2]; 100 uM
  % (A-Blank relative to control): 95.71%
  A-Blank (Average-Blank) O.D. at 570 nm: 0.7753 O.D.
  Average O.D. reading at 570 nm: 0.858 O.D.
[2]; 200 uM
  % (A-Blank relative to control): 93.333%
  A-Blank (Average-Blank) O.D. at 570 nm: 0.756 O.D.
  Average O.D. reading at 570 nm: 0.8388 O.D.
[2]; 300 uM
  % (A-Blank relative to control): 84.9074%
  A-Blank (Average-Blank) O.D. at 570 nm: 0.6877 O.D.
  Average O.D. reading at 570 nm: 0.7705 O.D.
[2]; 500 uM
  % (A-Blank relative to control): 75.31%
  A-Blank (Average-Blank) O.D. at 570 nm: 0.61 O.D.
  Average O.D. reading at 570 nm: 0.6927 O.D.
[3]
  Inhibition of cell proliferation: inhibited cell proliferation
[3]; 10 uM
  % (A-Blank relative to control): 100.1%
  A-Blank (Average-Blank) O.D. at 570 nm: 0.6935 O.D.
  Average O.D. reading at 570 nm: 0.7798 O.D.
[3]; 25 uM
  % (A-Blank relative to control): 102.02%
  A-Blank (Average-Blank) O.D. at 570 nm: 0.7068 O.D.
  Average O.D. reading at 570 nm: 0.793 O.D.
[3]; 50 uM
  % (A-Blank relative to control): 99.567%
  A-Blank (Average-Blank) O.D. at 570 nm: 0.6898 O.D.
  Average O.D. reading at 570 nm: 0.776 O.D.
[3]; 75 uM
  % (A-Blank relative to control): 100.11%
  A-Blank (Average-Blank) O.D. at 570 nm: 0.6935 O.D.
  Average O.D. reading at 570 nm: 0.7798 O.D.
[3]; 100 uM
  % (A-Blank relative to control): 95.453%
  A-Blank (Average-Blank) O.D. at 570 nm: 0.6613 O.D.
  Average O.D. reading at 570 nm: 0.7475 O.D.
[3]; 200 uM
  % (A-Blank relative to control): 90.978%
  A-Blank (Average-Blank) O.D. at 570 nm: 0.6303 O.D.
  Average O.D. reading at 570 nm: 0.7165 O.D.
[3]; 300 uM
  % (A-Blank relative to control): 79.7546%
  A-Blank (Average-Blank) O.D. at 570 nm: 0.5525 O.D.
  Average O.D. reading at 570 nm: 0.6388 O.D.
[3]; 500 uM
  % (A-Blank relative to control): 74.49%
  A-Blank (Average-Blank) O.D. at 570 nm: 0.516 O.D.
  Average O.D. reading at 570 nm: 0.6022 O.D.
